“Also recorded” adds a separate entry of the source.

The nature of this data set: solubility in solvents and buffers. The class given is physicochemical.

Consider `CCCCCCCCCCCC/C=C/CCCCC(=O)Oc1nc2ccccc2nc1OP(O)(=S)OCCCCCCCCCCCCCCCC` (stereo not shown) [streptolipin, Nonadeca-6-enoic acid-3-(hexadecyloxy-hydroxy-thiophosphoryloxy)-quinoxalin-2-yl ester], for which the Solubility response result was “Insoluble” (5% acetic acid); “Insoluble” (5% sodium bicarbonate); “Insoluble” (5% sodium hydroxide); “Soluble” (Acetone); “slightly soluble; also recorded: Sparingly soluble” (Acetonitrile); “Soluble” (Chloroform). For the same compound, the Solubility response entry is, setting by setting: (Diethyl ether) “slightly soluble; also recorded: Sparingly soluble”; (Dimethyl sulphoxide) “Soluble”; (Ethanol) “Sparingly soluble”; (Ethyl acetate) “slightly soluble; also recorded: Sparingly soluble”; (Hexane) “Sparingly soluble”; (Methanol) “slightly soluble; also recorded: Sparingly soluble”. Moreover, the Solubility response result runs as follows: (Phosphate buffer (pH 7.4-8.0)) “Insoluble”; (acetate buffer (pH 5.0, 6.0)) “Insoluble”; (tris buffer (pH 8.0, 9.0)) “Insoluble”; (water) “Insoluble”.

Values taken from patent US7737146B2, “Compound, useful for pancreatic lipase inhibition and the process for isolation thereof” (Council of Scientific and Industrial Research, priority 2005, dated 2010).
